Measured values published in patent publication US6528309B2, “Vacuum-mediated desiccation protection of cells” (The Regents of the University of California, priority 2001, dated 2003).
Like-named read-outs stand apart in the source and are kept apart here.

Columns and labels:
[1] = tested on: Basinger human fibroblasts; test: Drying tolerance of Basinger human fibroblasts with disaccharides and polyols (trypan blue exclusion); format: cell-based; conditions: for Cell Culture Survival (%): concentration (50 mM or 10% solution), vacuum; for effectiveness in protecting the viability of the cells (in words): trypan blue exclusion
Procedure: (§1) Trypan blue exclusion was done by adding 10 μl of 0.4% trypan blue in 0.85% NaCl (Gibco BRL) to 10 μl of a single cell suspension of trypsinized cells and counting the number of trypan blue positive and negative cells. Colony assays were done by harvesting adherent cells 8-12 hours after rehydration, counting by hemacytometer, and plating either 200 or 300 cells in a 10 cm tissue culture dish. The same number of cells from a non-desiccated control were plated in parallel. Approximately 1 week later, the plates were stained with Giemsa and the colonies were counted.

12F cells [2] = test: Desiccation tolerance of 12F cells at different storage temperatures, with trehalose (trypan blue exclusion / FACS); format: cell-based, human; conditions: for Cell Survival: trehalose 50 mM by thermal shock, dried under vacuum
Procedure: as §1
For thermal shock experiments, trehalose solution (50 mM final concentration) in DMEM and 10% FBS, was added to a pellet of 1×10^6 cells to produce a cell suspension which was then incubated on ice for 5 minutes, and then for 10 minutes in a 37° C. water bath (Daw et al., Cryobiol., 10:126-133 [1973]; and Moore et al., Cell 54:777-785 [1988]). This cycle was repeated twice. For adherent cells, the cells were plated in 6-well plates and grown to 90-95% confluence prior to thermal shock with 50 mM trehalose as described above. These methods are described in more detail in the following Examples. However, it is not intended that the present invention be limited to any particular temperatures used for thermal shock, as it is known in the art that in some cases, cells can be shocked using different temperatures.
In these experiments, the effects of temperature and drying on cell survival were investigated. In addition, the effects of the presence of trehalose on cell survival under different conditions of temperature and drying were investigated. Ten 6-well plates of 12F cells were prepared at about 90-95 confluence. The day prior to the beginning of the drying period, five plates were exposed to thermal shock to introduce trehalose into the cells (as described above). On the first day of the drying period, all of the plates were dried, and the plates were incubated in pairs (i.e., one with trehalose and one without trehalose) at −70° C., −20° C., room temperature, and 37° C., for 4 days.
In additional experiments to determine the effect of temperature on the ability of cells to withstand desiccation, 6-well plates with 12F cells were prepared at approximately 90% confluence, dried under vacuum at room temperature as described above, and stored at −70° C., −20° C., 4° C., 20° C., and 37° C. for 3 days. In these experiments, two plates were used, one included trehalose (50 mM) introduced into the cells using thermal shock, as described above. […] The cells were then rehydrated and the viability was determined by trypan blue exclusion. […] The optimum survival temperature was determined to be about 20° C. (i.e., approximately room temperature). At the other temperatures examined, there were almost no viable cells remaining, as determined by trypan blue exclusion, and none were able to grow and form colonies (results not shown). In these experiments, the presence (“Tre(+)”)/absence (“Tre(−)”) of trehalose appeared to have no impact on the optimum temperature.
No colonies were ever grown from cells maintained in the desiccated state at temperatures other than approximately 20° C.

[3] = tested on: Basinger human fibroblasts; test: Cell survival after drying with trehalose combinations and trehalose alone; format: cell-based
Procedure: In this Example, experiments to observe the effects of various combinations of sugars on cell viability are described. The results obtained for these combinations were then compared with the results obtained for trehalose alone. The combinations used were trehalose with glycerol, and trehalose with mannitol. Controls were also tested with no sugars, and trehalose alone. In these experiments Basinger human fibroblasts were used.

Adherent Basinger cells = test: Trehalose dose response for desiccation tolerance and cytotoxicity; format: cell-based, human; conditions: 24 hours incubation
Procedure: In these experiments, the effects of trehalose concentration on desiccation tolerance were determined. Adherent Basinger cells were prepared in 6-well plates, and incubated at 37° C., with 10% CO2. When the cells reached 65-70% confluence, the cells were incubated with varying concentrations of trehalose (10 mM, 25 mM, 50 mM, 150 mM, and 500 mM) for 24 hours. The cells were exposed to thermal shock and desiccated as described above.

12F cells [4] = test: Preliminary vacuum drying experiments; format: cell-based
Basinger cells = test: Colony (plating efficiency) assay after desiccation and rehydration; format: cell-based, human; conditions: for ability to mediate desiccation tolerance, singly and together (in words): 3% glycerol and/or 50 mM trehalose, thermal shock, vacuum (FIG. 8); for ability of the cells to form colonies following rehydration: results not shown
Procedure: as §1
To definitively determine the effect of different desiccation protocols, an assay based on colony formation (i.e., “plating efficiency”) was used, as described in the following Examples. In this assay, rehydrated cells were replated at low density and the number of distinct colonies counted. In this way, only rehydrated cells able to undergo cell division were counted as “viable.” The pattern of viability determined by trypan blue exclusion and colony assay were the same (e.g., compare FIG. 2A with FIG. 2B), validating the use of trypan blue to measure the effect of various treatments on cell viability.
In subsequent experiments, trehalose was tested in combination with glycogen, glycerol, and sucrose. As for some anhydrobiotic organisms (e.g., Artemia cysts) glycerol accounts for about 4% of their dry weight and trehalose constitutes up to about 14% of their dry weight, these experiments were conducted to determine the effects of these compounds on cell survival. In this Figure, results are shown for Basinger cells plated in 6-well plates and exposed to 3% glycerol and/or 50 mM trehalose immediately prior to undergoing thermal shock and desiccation under vacuum. After the drying period was complete, media were added and the cells were incubated overnight. The following day, the cells were harvested and plated for viability determination using the colony assay described herein.

12F cells [5] = test: Effect of trehalose and vacuum on desiccation tolerance of 12F cells; format: cell-based, human; conditions: trehalose 50 mM, three days dried
Procedure: In this Example, experiments conducted to determine the effect of trehalose and vacuum on desiccation tolerance of 12F cells are described. The 12F cells were prepared at 95% confluence in five 6-well plates. On plates 1 (V+T+) and 3 (V−T+), trehalose (50 mM final concentration) was introduced by thermal shock, as described in above. Medium was then removed from each of the wells, and Plates 1 (V+T+) and 2 (V+T−) were vacuum sealed using the Magic Vac vacuum packaging system (Flaem Nuova) and maintained at room temperature. Plates 3 and 4 were sealed in bags without vacuum and also maintained at room temperature. Three days later, medium (DMEM) was added to the plates, and the plates incubated at 37° C. with 10% CO2 overnight. The next day, the cells were harvested and stained with trypan blue in order to determine the dead/live ratio.
In some experiments, the samples were divided. One portion of the sample was used in the analysis of live/dead cells using trypan blue, as described above, and the second portion was plated into fresh culture media at 25× dilution and incubated until cells grew in the culture. This allowed counting of the live cells based on their “plating efficiency.” This was considered to be the best way to estimate the ratio of dead to alive cells.

[6] = tested on: Basinger fibroblast cells; test: Cytotoxicity of carbohydrates and polyols (maximum usable concentration)
Procedure: To determine whether any of these molecules have properties that would allow them to substitute for trehalose in promoting desiccation tolerance in mammalian cells, a number of carbohydrates and polyols were systematically studied. Each was tested initially to determine the maximum concentration at which they could be used without causing cytotoxicity. The ability of the different molecules to mediate desiccation tolerance was then tested at the optimal concentration for each.
Thus, in these experiments, Basinger fibroblast cells were tested in long term desiccation experiments (i.e., longer than 5 days of drying). In these experiments, Basinger cells at approximately 75% confluence were exposed to a polyol or disaccharide for 12 hours prior to removal of medium and desiccation under vacuum. Thermal shock was used to introduce the disaccharides or polyols into the cells to produce equal concentrations final of 50 mM in the cultures (with equal numbers of cells). […] FIG. 7 also provides a graphic representation of the results for various test disaccharides and polyols.

12F and Basinger cells = conditions: human

Molecule	Cell Culture Survival (%) ([1]; Day 3 of drying)	Cell Culture Survival (%) ([1]; Day 4 of drying)	Cell Culture Survival (%) ([1]; Day 5 of drying)	Cell Culture Survival (%) ([1]; Day 6 of drying)	effectiveness in protecting the viability of the cells (in words) [1]	further results
OC[C@H]1O[C@H](O[C@H]2[C@H](O)[C@@H](O)C(O)O[C@@H]2CO)[C@H](O)[C@@H](O)[C@@H]1O (mixture of isomers) [Maltose]	31	17	4.2	2.5	–	–
OC[C@@H](O)[C@@H](O)[C@H](O)[C@H](O)CO [Mannitol]	32	11	3.1	5.4	–	–
OC[C@@H](O)[C@@H](O)[C@H](O)[C@@H](O)CO [Sorbitol]	29	8	3.1	0.8	–	–
OC[C@H]1O[C@@](CO)(O[C@H]2O[C@H](CO)[C@@H](O)[C@H](O)[C@H]2O)[C@@H](O)[C@@H]1O [Sucrose]	39	28	9.1	7.2	as effective as trehalose	–
OC[C@H]1O[C@H](O[C@H]2O[C@H](CO)[C@@H](O)[C@H](O)[C@H]2O)[C@H](O)[C@@H](O)[C@@H]1O [Trehalose, D (+) trehalose dihydrate]	45	38	12	10.5	–	cells appearing to be "live" (FACS) (12F cells [2]; dried in the presence of trehalose, incubated at −70° C., no growth upon plating): about 4%; survival rate (in words) (12F cells [2]; incubated at room temperature in the presence of trehalose): very high; Cell Survival (12F cells [2]; storage at RT (room temperature)): 34%; Cell Survival (12F cells [2]; storage temperature 4° C.): 2.8%; Cell Survival (12F cells [2]; storage temperature 37° C.): 0.4%; Cell Survival (12F cells [2]; storage temperature −20° C.): 0.7%; Cell Survival (12F cells [2]; storage temperature −70° C.): 4%; Cell Survival ([3]; Day 3): 7.5; Cell Survival ([3]; Day 4): 0.8; Cell Survival ([3]; Day 5): 2.2; Cell Survival ([3]; Day 6): 1.5; trehalose concentration resulting in obvious cytotoxicity (Adherent Basinger cells): above 150 mM; optimal concentration of trehalose for desiccation tolerance (Adherent Basinger cells; thermal shock, desiccation, 10-500 mM tested): 50 mM; trehalose concentration at which cytotoxic effects were observed (12F cells [4]): more than 50 mM; ability to mediate desiccation tolerance, singly and together (in words) (Basinger cells): roughly similar; ability of the cells to form colonies following rehydration (Basinger cells): able to maintain cellular viability; survival rate compared to the controls (in words) (12F cells [5]): much higher survival rate
OCC(O)CO [glycerol]	2.6	4.8	0.7	3.1	–	optimum concentration [6]: 3%; concentration with long-term cytotoxic effect ([6]; human): above 4%; concentration found to be toxic (very low survival, no growth upon passage) ([6]; human, 12 h): ≥ 5%; ability to mediate desiccation tolerance, singly and together (in words) (Basinger cells): roughly similar; ability of the cells to form colonies following rehydration (Basinger cells): able to maintain cellular viability; concentration toxic for cells (12F and Basinger cells): above 5%
Dextran	0.9	2.4	1.7	0.8	completely ineffective	concentration found to be toxic (very low survival, no growth upon passage) [6]: ≥ 5%
Glycogen	40.6	21.5	14	9.5	almost equally as effective	–
